From patent publication US20050043262A1, “Novel specific inhibitor of the cyclin kinase inhibitor p21Waf1/Cip1 and methods of using the inhibitor” (priority 2000, published 2005)
In the oligonucleotide strings, read from the 5' end, every base follows the letter of its sugar. An asterisk marks phosphorothioate; unmarked linkages are phosphodiester. Other units and linkages are bracketed, terminal groups are in braces. A string of capitals states the bases alone. d = 2'-deoxy (DNA)

Experiments:
[1] = system: PARP; assay: PARP cleavage by immunoblot in MCF7 cells; assay type: cell-based, human
Experimental: As a further measure of apoptosis, cleavage of PARP was next examined. This protein is cleaved by caspases and results in appearance of Mr 85,000 and Mr 24,000 fragments, the latter of which binds irreversibly to broken ends of DNA, which assures irreversibility of apoptosis. Both breast cancer cell lines were transfected with antisense p21 and random sequence ODNs and immunoblotted with PARP antibody. […] T47D (A) and MCF7 (B) cells were grown to confluence, serum starved for 24 hours, and lipofected with antisense p21 or control ODN at the concentrations indicated. cont refers to nontransfected cells, and lipofect refers to cells treated with lipofectin but no DNA. The cells were lysed, and equal protein quantities were electrophoresed and immunoblotted with PARP antibody. The degradation product of PARP (Mr 85,000) is indicated by an arrow. MAPK is a loading control; a positive PARP cleavage control is Jurkat whole cell lysate.

[2] = system: p21^Waf1/Cip1; assay: p21 protein level by Western blot in A10 VSM cells; assay type: cell-based, rat; conditions: for p21 levels after ionizing radiation: 12 Gy, up to 4 hours
Experimental: Western blots: Cells were grown to confluence in 6 cm culture dishes and serum deprived. After transfection and or treatment with appropriate agonist, the cells were washed with phosphate-buffered saline and lysed in lysis buffer and the supernatant was Western blotted as described (Weiss et al., 1998 Am. J. Physiol., 274, p. C1521-C1529).
To determine whether antisense transfection with p21^Waf1/Cip1 antisense oligonucleotides indeed decreases p21^Waf1/Cip1 protein levels, p21^Waf1/Cip1 levels after antisense transfection were examined employing the fact that PMA is a potent inducer of p21^Waf1/Cip1 (Huang et al., 1995 Proc. Natl. Acad. Sci. U.S.A., 92, p. 4793-4797; Michieli et al., 1994 Cancer Res., 54, p. 3391-3395). Since p21^Waf1/Cip1 protein levels were induced in VSM cells between 2 and 6 hours after PMA stimulation (FIG. 4), the p21^Waf1/Cip1 levels in transfected cells after similar times of PMA stimulation were examined. […] There was no effect of the p21^Waf1/Cip1 sense (SEQ. ID NO.:2) control oligodeoxynucleotide on cellular p21^Waf1/Cip1 levels (compare with FIG. 4).
To check for specificity of protein inhibition by the antisense p21^Waf1/Cip1 oligodeoxynucleotide (SEQ. ID NO.: 1), protein levels of p21^Waf1/Cip1 and p27^Kip1 after transfection with antisense p21^Waf1/Cip1 oligodeoxynucleotide (SEQ. ID NO.:1) were examined. In these experiments the ability of antisense oligodeoxynucleotides (SEQ. ID NO.:1) to inhibit maximally stimulated CKI expression (see FIG. 4) was assessed. The cells were stimulated with PMA for 4 hours at various times after overnight serum starvation.
Western blots: Cells were grown to confluence in 6 cm culture dishes and serum deprived. After transfection and or treatment with appropriate agonist, conditioned medium was removed and saved and the cells were washed with phosphate-buffered saline and lysed in lysis buffer. Both supernatant and cell lysate were normalized to the lysate protein concentrations and Western blotted as described (Weiss R H, et al. Am J Physiol 274:C1521-C1529, 1998).
To confirm that p21 levels were increased after exposure to ionizing radiation, and that the oligonucleotides inhibit this phenomenon in A10 cells, p21 protein levels under these conditions were assayed. […] With the exception of the initial decrease in p21 levels at ½ and 1 hours, the results with the control oligonucleotides were similar to that observed in non-transfected cells.
Adriamycin is a prototypical DNA damaging agent used in the treatment of a variety of cancers. The predominantly G2 arrest seen after Adriamycin treatment has been associated with an increase in p21 levels in some cell lines (Siu W Y, et al. FEBS Lett 461:299-305, 1999). In order to determine whether similar augmentation of p21 is seen in A10 VSM cells and whether the antisense p21 oligonucleotide is inhibiting this response, these cells were treated with Adriamycin either with or without first transfecting the cells with the antisense and control oligonucleotides. Confluent VSM cells were transfected with antisense oligonucleotide to p21 or random sequence control oligonucleotide as described above. After 24 hours, the cells were exposed to Adriamycin (500 ng/ml), lysed at the indicated times after exposure, and Western blotted with p21 antibody.
Using a random sequence phosphorothioate oligodeoxynucleotide (SEQ. ID NO.:3) as a control, the effect of the antisense oligodeoxynucleotide to p21 (400 nM) on p21 and α-actin protein expression in A10 VSM cells, was examined. The lysates, normalized for protein content, were Western blotted with either p21 or α-actin antibody.

For “5′-ATC-CCC-AGC-CGG-TTC-TGA-CAT-3′ (antisense ATCCCCAGCCGGTTCTGACAT; listed as DNA, chemistry not fully specified) [antisense p21 ODN]”, the “PARP cleavage (Mr 85,000 product)” value [1] was “marked PARP cleavage”.
In the case of “5′-TGG ATC CGA CAT GTC AGA-3′ (dT*dG*dG*dA*dT*dC*dC*dG*dA*dC*dA*dT*dG*dT*dC*dA*dG*dA) [random sequence control oligonucleotide, reference compound]”, the “PARP cleavage (Mr 85,000 product)” value [1] is reported as “proapoptotic effect” and the “p21 levels after ionizing radiation” value ([2]; A10 VSM cells) is reported as “initial slight inhibition”.
5′-GACATCACCAGGATCGGACAT-3′ was tested, and the p21 protein level ([2]; A10 VSM cells, 400 nM) was “marked inhibition”, the “p21 levels after ionizing radiation” value ([2]; A10 VSM cells) was “consistently low” and the “p21^Waf1/Cip1 protein after maximal stimulation with PMA” value ([2]; A10 VSM cells, PMA for 4 hours) was “completely inhibited”. The “PMA-induced p21^Waf1/Cip1 levels” value ([2]; A10 VSM cells, PMA stimulation up to 6 hours after transfection) was “significant attenuation” and the “Adriamycin-induced increase of p21 levels” value ([2]; transfected VSM cells, Adriamycin 500 ng/ml) was “marked attenuation”.
